In patent publication US20250051327A1, “MALT-1 MODULATORS” (EXSCIENTIA AI LIMITED, priority 2020, published 2025):
Like-named read-outs stand apart in the source and are kept apart here.

Columns and labels:
[1] = system: IL-2 secretion by human effector memory T cells (TEM); test: Effector memory T cells IL-2 release assay; assay type: cell-based; settings: human CD4+ effector memory T cells, CD3/CD28 bead stimulation, 24 h, read-out: CD4TC IL2 IC50
Procedure, shortened: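 Human CD4+ effector memory T cells from healthy-donor buffy coats were stimulated with anti-CD3/CD28 Dynabeads and exposed to 10 semi-log compound doses (0.1% DMSO) for 24 h at 37 °C. Supernatant IL-2 was measured by HTRF, and IC50 came from a 4-parameter logistic fit to maximal IL-2. Viability was checked by flow cytometry.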

[2] = molecular target: Recombinant human MALT-1 (amino acids 340-824) (Homo sapiens (Human), UniProt Q9UDY8); test: MALT-1 inhibition assay (fluorogenic substrate Ac-LRSR-Rh110-DP); assay type: biochemical; settings: recombinant human MALT-1, substrate Ac-LRSR-Rh110-DP
Procedure, shortened: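 MALT-1 at 3 nM final was reacted with 10 μM Ac-LRSR-Rh110-DP, with substrate addition starting the reaction. Incubation ran 60 minutes at 25° C in the dark. Percent inhibition from fluorescence across doses was fitted to a 4-parameter logistic to give IC50.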

Chain of Recombinant human MALT-1 (amino acids 340-824) (Q9UDY8 340-824): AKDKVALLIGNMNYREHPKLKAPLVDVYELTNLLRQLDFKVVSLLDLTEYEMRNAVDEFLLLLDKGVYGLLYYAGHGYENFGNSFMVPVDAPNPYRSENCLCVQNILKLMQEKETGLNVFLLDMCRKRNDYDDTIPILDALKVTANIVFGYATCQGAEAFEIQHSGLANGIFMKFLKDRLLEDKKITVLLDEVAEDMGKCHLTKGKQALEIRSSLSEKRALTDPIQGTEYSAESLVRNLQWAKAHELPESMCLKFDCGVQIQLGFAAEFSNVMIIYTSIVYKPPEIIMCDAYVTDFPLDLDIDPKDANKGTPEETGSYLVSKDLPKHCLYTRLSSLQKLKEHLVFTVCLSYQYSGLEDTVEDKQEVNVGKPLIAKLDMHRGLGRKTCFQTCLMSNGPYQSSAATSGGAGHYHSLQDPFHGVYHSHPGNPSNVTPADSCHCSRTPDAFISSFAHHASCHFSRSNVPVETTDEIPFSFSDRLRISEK

Structure (SMILES) | IC50 ([1]; T-cell) [nM] | IC50 [2] [nM] | IC50 [1] [nM]
CN(C(=O)CC1CS(=O)(=O)C1)[C@@H](c1ccc(N2CCCc3c2cnc2cc(Cl)nn32)cc1)C(F)(F)F [CPD0072798, N-[(1S)-1-(4-{4-chloro-2,3,7,10-tetraazatricyclo[7.4.0.0^2,6]trideca-1(9),3,5,7-tetraen-10-yl}phenyl)-2,2,2-trifluoroethyl]-2-(1,1-dioxo-1λ^6-thietan-3-yl)-N-methylacetamide] | 200 | 142 | 
CN(C(=O)C1CCS(=O)(=O)CC1)[C@@H](c1ccc(N2CCCc3c2cnc2cc(Cl)nn32)cc1)C(C)(F)F [CPD0072803, N-[(1S)-1-(4-{4-chloro-2,3,7,10-tetraazatricyclo[7.4.0.0^2,6]trideca-1(9),3,5,7-tetraen-10-yl}phenyl)-2,2-difluoropropyl]-N-methyl-1,1-dioxo-1λ^6-thiane-4-carboxamide] | 1890 | 322 | 
CN(C(=O)c1cncn1C)[C@@H](c1ccc(N2CCCc3c2cnc2cc(Cl)nn32)cc1)C(F)(F)F [CPD0019344, N-[(1S)-1-(4-{4-chloro-2,3,7,10-tetraazatricyclo[7.4.0.0^2,6]trideca-1(9),3,5,7-tetraen-10-yl}phenyl)-2,2,2-trifluoroethyl]-N,1-dimethyl-1H-imidazole-5-carboxamide] | 295 | 213 | 
COc1ccc2ncc(Nc3ccc([C@H](N(C)C(=O)C4CCS(=O)(=O)CC4)C(F)(F)F)cc3)c(C(C)OC)c2n1 (stereo partly drawn) [CPD0019079, N-methyl-1,1-dioxo-N-[(1S)-2,2,2-trifluoro-1-(4-{[6-methoxy-4-(1-methoxyethyl)-1,5-naphthyridin-3-yl]amino}phenyl)ethyl]-1λ^6-thiane-4-carboxamide] | 102 | 147 | 
CN(C(=O)C1CC1)[C@@H](c1ccc(N2CCCc3c2cnc2cc(Cl)nn32)cc1)C(F)(F)F [CPD0019354, N-[(1S)-1-(4-{4-chloro-2,3,7,10-tetraazatricyclo[7.4.0.0^2,6]trideca-1(9),3,5,7-tetraen-10-yl}phenyl)-2,2,2-trifluoroethyl]-N-methylcyclopropanecarboxamide] | 83 | 164 | 
CN(C(=O)C[C@@H]1CCS(=O)(=O)C1)[C@@H](c1ccc(N2CCCc3c2cnc2cc(Cl)nn32)cc1)C(F)(F)F (relative stereo) [CPD0072800, N-[(1S)-1-(4-{4-chloro-2,3,7,10-tetraazatricyclo[7.4.0.0^2,6]trideca-1(9),3,5,7-tetraen-10-yl}phenyl)-2,2,2-trifluoroethyl]-2-[(3rel-R)-1,1-dioxo-1λ^6-thiolan-3-yl]-N-methylacetamide] | 187 | 92 | 
CC1CCc2c(cnc3cc(Cl)nn23)N1c1ccc([C@H](N(C)C(=O)C2CCS(=O)(=O)CC2)C(F)(F)F)cc1 (stereo partly drawn) [CPD0072805, N-[(1S)-1-{4-[(11rel-S)-4-chloro-11-methyl-2,3,7,10-tetraazatricyclo[7.4.0.0^2,6]trideca-1(9),3,5,7-tetraen-10-yl]phenyl}-2,2,2-trifluoroethyl]-N-methyl-1,1-dioxo-1λ^6-thiane-4-carboxamide] |  | 172 | 1020
COC(=O)N1CCC(C(=O)N(C)[C@@H](c2ccc(N3CCCc4c3cnc3cc(Cl)nn43)cc2)C(F)(F)F)CC1 [CPD0073691, methyl 4-{[(1S)-1-(4-{4-chloro-2,3,7,10-tetraazatricyclo[7.4.0.0^2,6]trideca-1(9),3,5,7-tetraen-10-yl}phenyl)-2,2,2-trifluoroethyl](methyl)carbamoyl}piperidine-1-carboxylate] | 149 | 101 | 

The remaining compounds from weak to strong by IC50 ([1]; T-cell), led by results:

IC50 ([1]; T-cell) [nM] | IC50 [2] [nM] | Structure (SMILES) | IC50 [1] [nM]
642 | 368 | COc1cc([C@H](N(C)C(=O)C2CCS(=O)(=O)CC2)C(F)(F)F)ccc1N1CCCc2c1cnc1cc(Cl)nn21 [CPD0073040, N-[(1S)-1-(4-{4-chloro-2,3,7,10-tetraazatricyclo[7.4.0.0^2,6]trideca-1(9),3,5,7-tetraen-10-yl}-3-methoxyphenyl)-2,2,2-trifluoroethyl]-N-methyl-1,1-dioxo-1λ^6-thiane-4-carboxamide] | 
557 | 35 | CN(C(=O)[C@H]1C[C@H](C(=O)O)C1)[C@@H](c1ccc(N2CCCc3c2cnc2cc(Cl)nn32)cc1)C(F)(F)F [CPD0072439, (trans)-3-{[(1S)-1-(4-{4-chloro-2,3,7,10-tetraazatricyclo[7.4.0.0^2,6]trideca-1(9),3,5,7-tetraen-10-yl}phenyl)-2,2,2-trifluoroethyl](methyl)carbamoyl}cyclobutane-1-carboxylic acid] | 
228 | 332 | CSc1cc2ncc3c(n2n1)CCCN3c1ccc([C@H](N(C)C(=O)C2CCS(=O)(=O)CC2)C(F)(F)F)cc1 [CPD0021815, N-methyl-1,1-dioxo-N-[(1S)-2,2,2-trifluoro-1-{4-[4-(methylsulfanyl)-2,3,7,10-tetraazatricyclo[7.4.0.0^2,6]trideca-1(9),3,5,7-tetraen-10-yl]phenyl}ethyl]-1λ^6-thiane-4-carboxamide] | 
178 | 123 | CN(C(=O)[C@H]1C[C@@](C)(O)C1)[C@@H](c1ccc(N2CCCc3c2cnc2cc(Cl)nn32)cc1)C(F)(F)F [CPD0072437, (1r,3s)-N-[(1S)-1-(4-{4-chloro-2,3,7,10-tetraazatricyclo[7.4.0.0^2,6]trideca-1(9),3,5,7-tetraen-10-yl}phenyl)-2,2,2-trifluoroethyl]-3-hydroxy-N,3-dimethylcyclobutane-1-carboxamide] | 
172 | 115 | CN(C)CC(=O)N1CC[C@@H](C(=O)N(C)[C@@H](c2ccc(N3CCCc4c3cnc3cc(Cl)nn43)cc2)C(F)(F)F)C1 (relative stereo) [CPD0075877, (3rel-S)-N-[(1S)-1-[4-(4-chloro-2,3,7,10-tetrazatricyclo[7.4.0.0^2,6]trideca-1(9),3,5,7-tetraen-10-yl)phenyl]-2,2,2-trifluoro-ethyl]-1-[2-(dimethylamino)acetyl]-N-methyl-pyrrolidine-3-carboxamide] | 
157 | 193 | Cc1ncc(C(=O)N(C)[C@@H](c2ccc(N3CCCc4c3cnc3cc(Cl)nn43)cc2)C(F)(F)F)s1 [CPD0019348, N-[(1S)-1-(4-{4-chloro-2,3,7,10-tetraazatricyclo[7.4.0.0^2,6]trideca-1(9),3,5,7-tetraen-10-yl}phenyl)-2,2,2-trifluoroethyl]-N,2-dimethyl-1,3-thiazole-5-carboxamide] | 
96 | 170 | CN(C(=O)CC#N)[C@@H](c1ccc(N2CCCc3c2cnc2cc(Cl)nn32)cc1)C(F)(F)F [CPD0019342, N-[(1S)-1-(4-{4-chloro-2,3,7,10-tetraazatricyclo[7.4.0.0^2,6]trideca-1(9),3,5,7-tetraen-10-yl}phenyl)-2,2,2-trifluoroethyl]-2-cyano-N-methylacetamide] | 
62 | 23 | CN(C(=O)[C@H]1CC[S@](=N)(=O)CC1)[C@@H](c1ccc(N2CCC3(CC3)c3c2cnc2cc(F)nn32)cc1)C(F)(F)F (relative stereo) [CPD0072853, (1rel-r,4rel-r)-1-imino-N-methyl-1-oxo-N-[(1S)-2,2,2-trifluoro-1-(4-{4′-fluoro-2′,3′,7′,10′-tetraazaspiro[cyclopropane-1,13′-tricyclo[7.4.0.0^2,6]tridecane]-1′(9′),3′,5′,7′-tetraen-10′-yl}phenyl)ethyl]-1λ^6-thiane-4-carboxamide] | 
